Reference: patent US12011444B2, “N-substituted indole derivatives as PGE2 receptor modulators” (Idorsia Pharmaceuticals Ltd, priority 2015, dated 2024)

Assays:
EP4 = EP4 (Homo sapiens (Human), UniProt P35408); experiment: hEP4 cAMP assay (BT549 breast cancer cells, HTRF cAMP); assay type: cell-based; conditions: antagonistic activity; mean values where measured multiple times
Method: Plate is pre-incubated 45 minutes at room temperature. Subsequently, 2.5 microliters of PGE2 (final conc. 6 nM) are transferred into the assay plate. Plate is incubated 30 minutes at room temperature.

EP2 = EP2 (Homo sapiens (Human), UniProt P43116);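 also: antagonism of PGE2-stimulated cAMP accumulation in SF295 human glioblastoma cells with endogenous EP2, cAMP read by HTRF, expressed relative to DMSO control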
PTGER2 (EP2) = PTGER2 (EP2) (Homo sapiens (Human), UniProt P43116); experiment: hEP2 b-arrestin assay (PathHunter HEK 293 PTGER2 b-arrestin cells); assay type: cell-based
In short: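 HEK293 cells expressing ProLink-tagged EP2 and EA-fused β-arrestin 2 (enzyme fragment complementation) were seeded 24 h, pre-incubated with compound 15 min at 37 °C, then stimulated with 5 μM PGE2 (final) for 120 min.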

PTRGER4 (EP4) = PTRGER4 (EP4) (Homo sapiens (Human), UniProt P35408); experiment: hEP4 b-arrestin assay (PathHunter HEK 293 PTGER4 b-arrestin cells); assay type: cell-based
In short: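 Stably transfected HEK293 cells carrying EP4–ProLink and β-arrestin 2–EA (β-gal fragment complementation), pre-incubated with compound 15 min at 37 °C, then stimulated with PGE2 (20 nM final) for 120 min at 37 °C. Chemiluminescence read after 1 h detection reagent at room temperature; activity per concentration expressed as percent of DMSO control.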

[1] = antagonistic activity on hEP2, mean where measured multiple times
[2] = antagonistic activity on hEP4, mean where measured multiple times
[3] = hEP2 b-arrestin assay (values without asterisk)
[4] = hEP4 b-arrestin assay (values without asterisk)

Chain of PTRGER4 (EP4) (P35408 whole entry, looked up, the tested form may be a part): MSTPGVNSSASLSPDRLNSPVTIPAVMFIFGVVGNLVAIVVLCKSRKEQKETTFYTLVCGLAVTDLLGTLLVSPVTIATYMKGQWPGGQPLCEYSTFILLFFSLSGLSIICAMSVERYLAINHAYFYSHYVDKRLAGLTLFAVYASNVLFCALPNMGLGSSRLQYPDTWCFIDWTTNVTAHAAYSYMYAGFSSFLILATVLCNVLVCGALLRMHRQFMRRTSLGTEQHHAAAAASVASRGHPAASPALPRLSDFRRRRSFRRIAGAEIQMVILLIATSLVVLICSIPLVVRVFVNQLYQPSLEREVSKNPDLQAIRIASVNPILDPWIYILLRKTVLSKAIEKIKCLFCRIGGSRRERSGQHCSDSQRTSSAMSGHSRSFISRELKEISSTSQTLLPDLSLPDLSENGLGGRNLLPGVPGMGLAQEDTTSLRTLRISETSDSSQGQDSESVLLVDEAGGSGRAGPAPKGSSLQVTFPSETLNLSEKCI
Chain of PTGER2 (EP2) (P43116 whole entry, the tested form may be a part): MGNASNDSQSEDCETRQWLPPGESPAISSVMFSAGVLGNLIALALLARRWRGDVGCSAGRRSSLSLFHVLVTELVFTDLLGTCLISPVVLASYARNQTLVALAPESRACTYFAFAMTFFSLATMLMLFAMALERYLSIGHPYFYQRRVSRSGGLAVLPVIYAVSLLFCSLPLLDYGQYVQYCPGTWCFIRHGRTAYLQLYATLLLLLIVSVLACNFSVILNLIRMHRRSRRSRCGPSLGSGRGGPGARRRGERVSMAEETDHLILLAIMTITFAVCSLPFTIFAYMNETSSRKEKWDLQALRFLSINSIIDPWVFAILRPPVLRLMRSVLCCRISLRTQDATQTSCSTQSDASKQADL
Chain of EP4 (P35408 whole entry): as the sequence (P35408 whole entry, looked up, the tested form may be a part) above
Chain of EP2 (P43116 whole entry): as the sequence (P43116 whole entry, the tested form may be a part) above

Row | Molecule | IC50 (PTGER2 (EP2); [1]) | IC50 (PTRGER4 (EP4); [2]) | IC50 (PTGER2 (EP2); [3]) | IC50 (PTRGER4 (EP4); [4]) | further results
1 | CCOc1cc(-c2cc(NCCn3c(C)cc4c(C)ccc(F)c43)ncn2)cc(Cl)c1C(=O)O [compound 433] | – | – | – | – | IC50 (EP4): 108 nM; IC50 (EP2): 61 nM
2 | COc1cc(-c2cc(NCCn3c(C#N)cc4c(OC)ccc(F)c43)ncn2)ccc1-c1c[nH]cn1 [Example 818, 7-Fluoro-1-(2-{6-[4-(1H-imidazol-4-yl)-3-methoxy-phenyl]-pyrimidin-4-ylamino}-ethyl)-4-methoxy-1H-indole-2-carbonitrile] | – | – | 2 nM | 1 nM | –
3 | CSc1cc(-c2cc(NCCn3c(C)cc4c(Cl)ccc(Cl)c43)ncn2)cc(F)c1C(=O)O [compound 141, 4-{6-[2-(4,7-Dichloro-2-methyl-indol-1-yl)-ethylamino]-pyrimidin-4-yl}-2-fluoro-6-methylsulfanyl-benzoic acid] | 20 nM | 992 nM | – | – | –
4 | CCNc1csc(-c2cc(NCCn3c(C)cc4c(OC)cc(F)cc43)ncn2)c1 [Example 1070, [6-(4-Ethylamino-thiophen-2-yl)-pyrimidin-4-yl]-[2-(6-fluoro-4-methoxy-2-methyl-indol-1-yl)-ethyl]-amine] | – | – | 10 nM | 18 nM | –
5 | COc1ccc(F)c2c1cc(C)n2CCNc1cc(-c2ccc3[nH]c(=O)[nH]c3c2)ncn1 [compound 74, 5-{6-[2-(7-Fluoro-4-methoxy-2-methyl-indol-1-yl)-ethylamino]-pyrimidin-4-yl}-1,3-dihydro-2H-benzo[d]imidazol-2-one] | 45 nM | 916 nM | – | – | –
6 | CCOc1cc(-c2cc(NCCn3c(C)cc4c(C)c(F)cc(Cl)c43)ncn2)ccc1C(=O)O [compound 344, 4-{6-[2-(7-Chloro-5-fluoro-2,4-dimethyl-indol-1-yl)-ethylamino]-pyrimidin-4-yl}-2-ethoxy-benzoic acid] | 34 nM | 319 nM | – | – | –
7 | N#Cc1cc2c(Cl)cccc2n1CCNc1cc(-c2cc(F)c(C(=O)O)s2)ncn1 [Example 903, 5-{6-[2-(4-Chloro-2-cyano-indol-1-yl)-ethylamino]-pyrimidin-4-yl}-3-fluoro-thiophene-2-carboxylic acid] | – | – | 4 nM | 69 nM | –
8 | COc1ccc(F)c2c1cc(C)n2CCNc1cc(-c2ccc3cc[nH]c3c2)ncn1 [compound 68, [2-(7-Fluoro-4-methoxy-2-methyl-indol-1-yl)-ethyl]-[6-(1H-indol-6-yl)-pyrimidin-4-yl]-amine] | 24 nM | 388 nM | – | – | –
9 | 5-{6-[2-(6-Fluoro-4-methoxy-2-methyl-indol-1-yl)-ethylamino]-pyrimidin-4-yl}-thiophen-3-ol [Example 801] | – | – | 20 nM | 139 nM | –
10 | COc1ccc(F)c2c1cc(C)n2CCNc1cc(-c2ccc3c(c2)C(C)NC3=O)ncn1 (racemic) [compound 203] | 14 nM | 324 nM | – | – | –
11 | CNS(=O)(=O)c1ccc(-c2cc(NCCn3c(C)cc4c(OC)ccc(F)c43)ncn2)cc1C [compound 360] | 75 nM | 372 nM | – | – | –
12 | CCOc1cc(-c2cc(NCCn3c(C)cc4c(C)cc(F)c(F)c43)ncn2)sc1C(=O)O [compound 294] | 8 nM | 10 nM | – | – | –
13 | CCOc1cc(-c2cc(NCCn3c(C#N)cc4c(OC)ccc(F)c43)ncn2)sc1C(=O)O [Example 805, 5-{6-[2-(2-cyano-7-fluoro-4-methoxy-indol-1-yl)-ethylamino]-pyrimidin-4-yl}-3-ethoxy-thiophene-2-carboxylic acid] | – | – | 4 nM | 5 nM | –
14 | CCOc1cc(-c2cc(NCCn3c(C#N)cc4c(C)cc(F)cc43)ncn2)ccc1C(=O)O [compound 395] | 24 nM | 137 nM | – | – | –
15 | COc1cc(F)cc2c1cc(C)n2CCNc1cc(-c2ccc(-c3c[nH]cn3)cc2)ncn1 [compound 188, [2-(6-Fluoro-4-methoxy-2-methyl-indol-1-yl)-ethyl]-{6-[4-(1H-imidazol-4-yl)-phenyl]-pyrimidin-4-yl}-amine] | 17 nM | 43 nM | – | – | –
16 | CCOc1cc(-c2cc(NCCn3c(C#N)cc4c(Cl)cc(Cl)cc43)ncn2)sc1C(=O)O [Example 889, 5-{6-[2-(4,6-Dichloro-2-cyano-indol-1-yl)-ethylamino]-pyrimidin-4-yl}-3-ethoxy-thiophene-2-carboxylic acid] | – | – | 1 nM | 35 nM | –
17 | N#Cc1cc2cccc(F)c2n1CCNc1cc(-c2cc(F)c(C(=O)O)s2)ncn1 [Example 901, 5-{6-[2-(2-Cyano-7-fluoro-indol-1-yl)-ethylamino]-pyrimidin-4-yl}-3-fluoro-thiophene-2-carboxylic acid] | – | – | 7 nM | 76 nM | –

More lines, main results first:

Row | IC50 (PTGER2 (EP2); [1]) | IC50 (PTRGER4 (EP4); [2]) | IC50 (PTGER2 (EP2); [3]) | IC50 (PTRGER4 (EP4); [4]) | Molecule | further results
18 | 53 nM | 193 nM | – | – | COc1ccc(F)c2c1cc(C)n2CCNc1cc(-c2ccc(-n3cccn3)cc2)ncn1 [compound 190] | –
19 | 37 nM | 548 nM | – | – | COc1ccc(F)c2c1cc(C)n2CCNc1cc(-c2csc(CO)c2)ncn1 [compound 101] | –
20 | 84 nM | 543 nM | – | – | CCOc1cc(-c2cc(NCCn3c(C)cc4c(OC)c(F)cc(F)c43)ncn2)ccc1C(=O)O [compound 364] | –
21 | – | – | 15 nM | 18 nM | CCOc1cc(-c2cc(NCCn3c(C)cc4c(OC)ccc(F)c43)ncn2)sc1CCC(=O)O [Example 1015, 3-(3-Ethoxy-5-{6-[2-(7-fluoro-4-methoxy-2-methyl-indol-1-yl)-ethylamino]-pyrimidin-4-yl}-thiophen-2-yl)-propionic acid] | –
22 | 18 nM | 168 nM | – | – | Cc1cc(-c2ccc(-c3cc(NCCn4c(C)cc5c(C)cc(F)cc54)ncn3)cc2)n[nH]1 [compound 178, [2-(6-Fluoro-2,4-dimethyl-indol-1-yl)-ethyl]-{6-[4-(5-methyl-1H-pyrazol-3-yl)-phenyl]-pyrimidin-4-yl}-amine] | –
23 | 1 nM | 161 nM | – | – | CCOc1cc(-c2cc(NCCn3c(C)cc4ccccc43)ncn2)sc1C(=O)O [compound 50] | –
24 | 12 nM | 174 nM | – | – | COc1cccc2c1cc(C)n2CCNc1cc(-c2ccc(CO)c(F)c2)ncn1 [compound 17, (2-Fluoro-4-{6-[2-(4-methoxy-2-methyl-indol-1-yl)-ethylamino]-pyrimidin-4-yl}-phenyl)-methanol] | –
25 | 1 nM | 114 nM | – | – | CCOc1cc(-c2cc(NCCn3c(C)cc4ccc(OC)cc43)ncn2)sc1C(=O)O [compound 117, 3-Ethoxy-5-{6-[2-(6-methoxy-2-methyl-indol-1-yl)-ethylamino]-pyrimidin-4-yl}-thiophene-2-carboxylic acid] | –
26 | 8 nM | 702 nM | – | – | CCc1cc(-c2cc(NCCn3c(C)cc4c(OC)cccc43)ncn2)ccc1C(=O)O [compound 223] | –
27 | 1 nM | 173 nM | – | – | CCNc1cc(-c2cc(NCCn3c(C)cc4c(Cl)cccc43)ncn2)ccc1C(=O)O [compound 212] | –
28 | – | – | 18 nM | 55 nM | COc1cc(C(=O)O)cc(-c2cc(NCCn3c(C#N)cc4c(OC)ccc(F)c43)ncn2)c1 [Example 1005, 3-{6-[2-(2-Cyano-7-fluoro-4-methoxy-indol-1-yl)-ethylamino]-pyrimidin-4-yl}-5-methoxy-benzoic acid] | –
29 | 20 nM | 124 nM | – | – | Cc1ccc(F)c2c1cc(C)n2CCNc1cc(-c2ccc3c(c2)CCN3)ncn1 [compound 11, [6-(2,3-Dihydro-1H-indol-5-yl)-pyrimidin-4-yl]-[2-(7-fluoro-2,4-dimethyl-indol-1-yl)-ethyl]-amine] | –
30 | – | – | 39 nM | 68 nM | COc1ccc(F)c2c1cc(C#N)n2CCNc1cc(-c2ccc3c(=O)n(C)[nH]c3c2)ncn1 [Example 920, 7-Fluoro-4-methoxy-1-{2-[6-(2-methyl-3-oxo-2,3-dihydro-1H-indazol-6-yl)-pyrimidin-4-ylamino]-ethyl}-1H-indole-2-carbonitrile] | –
31 | 5 nM | 645 nM | – | – | CCCc1cc(-c2cc(NCCn3c(C)cc4c(F)ccc(Cl)c43)ncn2)cc(F)c1C(=O)O [compound 340, 4-{6-[2-(7-Chloro-4-fluoro-2-methyl-indol-1-yl)-ethylamino]-pyrimidin-4-yl}-2-fluoro-6-propyl-benzoic acid] | –
32 | 9 nM | 975 nM | – | – | CCc1cc(-c2cc(NCCn3c(C)cc4c(C)cccc43)ncn2)ccc1C(=O)O [compound 26, 4-{6-[2-(2,4-Dimethyl-indol-1-yl)-ethylamino]-pyrimidin-4-yl}-2-ethyl-benzoic acid] | –
33 | 19 nM | 106 nM | – | – | Cc1ccc(F)c2c1cc(C)n2CCNc1cc(-c2ccc(-c3cc(N)no3)cc2)ncn1 [compound 189, {6-[4-(3-Amino-isoxazol-5-yl)-phenyl]-pyrimidin-4-yl}-[2-(7-fluoro-2,4-dimethyl-indol-1-yl)-ethyl]-amine] | –
34 | – | – | 6 nM | 3 nM | CCOc1cc(-c2cc(NCCn3c(C#N)cc4c(C)ccc(F)c43)ncn2)sc1C(=O)O [Example 891, 5-{6-[2-(2-Cyano-7-fluoro-4-methyl-indol-1-yl)-ethylamino]-pyrimidin-4-yl}-3-ethoxy-thiophene-2-carboxylic acid] | –
35 | – | – | 7 nM | 31 nM | CNc1cc(-c2cc(NCCn3c(C)cc4c(OC)cc(F)cc43)ncn2)ccc1C(=O)O [Example 1017, 4-{6-[2-(6-Fluoro-4-methoxy-2-methyl-indol-1-yl)-ethylamino]-pyrimidin-4-yl}-2-methylamino-benzoic acid] | –
